The target in the assay is T1, KCNQ2/3 channels (Homo sapiens, UniProt O43525+O43526).
T1 construct: expressed in transfected cells
Nature of the assay: Fluorescence assay using a voltage sensitive dye (fluorimetry). It counts as cell-based. Particulars: CHO-K1 cells expressing KCNQ2/3; for Emax: CHO-K1, plateau effect relative to saturated retigabine (50 μM) = 100%, negative values = antagonistic, read-out: Fluorimetry % efficacy (retigabine = 100%); for EC50: IC50 where % efficacy is negative, read-out: Fluorimetry EC50/IC50. The source says:
Method I. Fluorescence Assay Using a Voltage Sensitive Dye (Fluorimetry)
These voltage-sensitive dyes are fluorescent dyes and, therefore, are forming the link between cell potential influenced by KCNQ modulation and fluorescence intensity. A KCNQ agonist leads to an opening of the channel, potassium and dye efflux, a following hyperpolarization and a reduction of the inner fluorescence intensity in a kinetic protocol. If applying an ion jump by KCl depolarization, KCNQ agonists increase the ΔF/F value. An antagonist performs vice versa, respectively.
Therefore, ‘fluorimetry EC50’ is a measure for the compound potency. The compound efficacy is mirrored by ‘fluorimetry % efficacy’ (‘% Efficacy’) and refers to the maximum response achievable by the test compound, i.e. the plateau effect. This drug's plateau effect is related to the plateau effect, which can be achieved by applying a saturated concentration of a reference compound, e.g. Retigabine (50 μM), in independent wells of the same experimental plate or series.
[…] CHO-K1 cells expressing KCNQ2/3 channels are cultivated adherently at 37° C., 5% CO2 and 95% humidity in cell culture bottles (e.g. 80 cm^2 TC flasks, Nunc) with DMEM-high glucose (Sigma Aldrich, D7777) including 10% FCS (PAN Biotech, e.g. 3302-P270521) or alternatively MEM Alpha Medium (1×, liquid, Invitrogen, #22571), 10% fetal calf serum (FCS) (Invitrogen, #10270-106, heat-inactivated) and the necessary selection antibiotics.
The cell number is determined using a CASY™ cell counter (TCC, Schärfe System). Depending on the optimal density for each individual cell line, 20,000-30,000 cells/well/100 μl are seeded onto 96-well Corning™ CellBIND™ assay plates (Flat Clear Bottom Black Polystyrene Microplates, #3340). Freshly seeded cells are then left to settle for one hour at room temperature, followed by incubation for 24 hours at 37° C., 5% CO2 and 95% humidity.
The voltage-sensitive fluorescent dye from the Membrane Potential Assay Kit (Red™ Bulk format part R8123 for FLIPR, MDS Analytical Technologies™) is prepared by dissolving the contents of one vessel Membrane Potential Assay Kit Red Component A in 200 ml of extracellular buffer (ES buffer, 120 mM NaCl, 1 mM KCl, 10 mM HEPES, 2 mM CaCl2, 2 mM MgCl2, 10 mM glucose; pH 7.4). After removal of the nutrient medium, the cells are washed once with 200 μl of ES buffer, then loaded for 45 min at room temperature in 100 μl of dye solution in the dark.
Fluorescence measurements are carried out in a BMG Labtech FLUOstar™, BMG Labtech NOVOstar™ or BMG Labtech POLARstar™ instrument (525 nm excitation, 560 nm emission, Bottom Read mode). After incubation with the dye, 50 μl of the test substances in the desired concentrations, or 50 μl of ES buffer for control purposes, are applied to the wells of the assay plate and incubated for 30 min at room temperature while being shielded from light. The fluorescence intensity of the dye is then measured for 5 min and the fluorescence value F1 of each well is thus determined at a given, constant time. 15 μl of a KCl solution are then added to each well (final concentration of potassium ions 92 mM). The change in fluorescence intensity is subsequently monitored until all the relevant values have been obtained (mainly 5-30 min). At a given time post KCl application, a fluorescence value F2 is determined, in this case at the time of the fluorescence peak.
For calculation, the fluorescence intensity F2 is corrected for the fluorescence intensity F1, and the activity (ΔF/F) of the target compound on the potassium channel is determined as follows:
In order to determine whether a substance has agonistic activity,
[formula] can be related to
[formula] of control wells.
[formula] is determined by adding to the well only the buffer solution instead of the test substance, determining the value F1K of the fluorescence intensity, adding the potassium ions as described above, and measuring a value F2K of the fluorescence intensity.

T1 sequence (O43526 whole entry): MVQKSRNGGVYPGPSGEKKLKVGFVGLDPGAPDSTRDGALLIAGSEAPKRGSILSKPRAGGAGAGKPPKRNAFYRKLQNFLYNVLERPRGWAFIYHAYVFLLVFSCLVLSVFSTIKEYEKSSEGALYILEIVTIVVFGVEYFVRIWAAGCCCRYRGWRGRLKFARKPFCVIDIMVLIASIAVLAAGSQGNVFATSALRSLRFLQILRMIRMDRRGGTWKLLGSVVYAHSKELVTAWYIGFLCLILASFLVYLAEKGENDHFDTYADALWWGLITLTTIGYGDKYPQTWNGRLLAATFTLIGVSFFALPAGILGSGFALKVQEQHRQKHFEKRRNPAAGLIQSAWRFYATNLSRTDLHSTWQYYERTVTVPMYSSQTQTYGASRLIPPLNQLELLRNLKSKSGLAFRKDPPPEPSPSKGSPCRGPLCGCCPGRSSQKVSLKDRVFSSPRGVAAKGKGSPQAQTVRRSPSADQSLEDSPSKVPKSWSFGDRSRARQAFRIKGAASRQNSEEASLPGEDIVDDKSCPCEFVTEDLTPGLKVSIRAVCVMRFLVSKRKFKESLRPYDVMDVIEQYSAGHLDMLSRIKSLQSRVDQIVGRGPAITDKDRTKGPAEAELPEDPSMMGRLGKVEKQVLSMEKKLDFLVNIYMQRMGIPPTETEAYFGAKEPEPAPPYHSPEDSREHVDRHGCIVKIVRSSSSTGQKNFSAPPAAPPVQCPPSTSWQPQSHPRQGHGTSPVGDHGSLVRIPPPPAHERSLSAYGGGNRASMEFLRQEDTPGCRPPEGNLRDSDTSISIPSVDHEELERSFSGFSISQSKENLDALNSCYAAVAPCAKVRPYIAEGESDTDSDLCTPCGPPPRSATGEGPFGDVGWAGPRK
T1 sequence (O43525 whole entry): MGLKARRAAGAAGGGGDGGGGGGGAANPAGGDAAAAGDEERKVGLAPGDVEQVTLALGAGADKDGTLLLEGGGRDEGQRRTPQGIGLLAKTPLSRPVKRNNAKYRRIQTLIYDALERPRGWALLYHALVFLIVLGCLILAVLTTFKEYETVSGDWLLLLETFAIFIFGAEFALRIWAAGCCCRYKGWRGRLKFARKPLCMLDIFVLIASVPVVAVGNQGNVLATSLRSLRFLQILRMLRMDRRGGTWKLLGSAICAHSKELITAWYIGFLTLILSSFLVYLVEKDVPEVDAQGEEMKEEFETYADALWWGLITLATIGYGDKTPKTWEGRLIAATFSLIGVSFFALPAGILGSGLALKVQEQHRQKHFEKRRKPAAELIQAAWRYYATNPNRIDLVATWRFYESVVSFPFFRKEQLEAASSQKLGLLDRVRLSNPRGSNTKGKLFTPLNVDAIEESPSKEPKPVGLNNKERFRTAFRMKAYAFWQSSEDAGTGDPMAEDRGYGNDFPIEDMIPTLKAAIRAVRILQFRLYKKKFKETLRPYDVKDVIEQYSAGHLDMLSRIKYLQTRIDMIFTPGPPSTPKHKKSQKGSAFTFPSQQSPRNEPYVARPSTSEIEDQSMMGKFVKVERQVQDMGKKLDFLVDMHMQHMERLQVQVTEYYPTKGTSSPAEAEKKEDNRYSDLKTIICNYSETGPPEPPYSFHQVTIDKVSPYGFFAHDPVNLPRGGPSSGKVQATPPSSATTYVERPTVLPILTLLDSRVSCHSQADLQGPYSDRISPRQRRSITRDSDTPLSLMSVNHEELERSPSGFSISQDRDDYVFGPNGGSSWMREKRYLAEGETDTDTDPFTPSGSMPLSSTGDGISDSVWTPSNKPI

For the compound `CCSc1nc(N2CCOCC2)cc(C)c1C(=O)NCC1CCCC1` [Example 43, N-(Cyclopentyl-methyl)-2-ethylsulfanyl-4-methyl-6-morpholin-4-yl-pyridine-3-carboxylic acid amide], the Emax is 189% and the EC50 stood at 679 nM.
Consider `CCSc1nc(N2CCOCC2)cc(C)c1C(=O)NCCC1CCCC1` [Example 44, N-(2-Cyclopentyl-ethyl)-2-ethylsulfanyl-4-methyl-6-morpholin-4-yl-pyridine-3-carboxylic acid amide], for which the Emax was 116% and the EC50 came to 87 nM.
Turning to `CCSc1nc(N2CCOCC2)cc(C)c1C(=O)NCc1cccc(F)n1` [Example 45, 2-Ethylsulfanyl-N-[(6-fluoro-pyridin-2-yl)-methyl]-4-methyl-6-morpholin-4-yl-pyridine-3-carboxylic acid amide], the Emax came out at 151% and the EC50 was determined as 3140 nM.
`CCSc1nc(N2CCOCC2)cc(C)c1C(=O)NCc1ccc(F)cn1` [Example 46, 2-Ethylsulfanyl-N-[(5-fluoro-pyridin-2-yl)-methyl]-4-methyl-6-morpholin-4-yl-pyridine-3-carboxylic acid amide]: the Emax was 143% and the EC50 was 4830 nM.
Take `CCSc1nc(N2CCOCC2)cc(C)c1C(=O)NCC(C)(C)C` [Example 47, N-(2,2-Dimethyl-propyl)-2-ethylsulfanyl-4-methyl-6-morpholin-4-yl-pyridine-3-carboxylic acid amide]: the Emax was determined as 119% and the EC50 came out at 2610 nM.
As to `CCSc1nc(N2CCC(OC)CC2)cc(C)c1C(=O)NCc1cccc(F)c1` [Example 49, 2-Ethylsulfanyl-N-[(3-fluorophenyl)-methyl]-6-(4-methoxy-piperidin-1-yl)-4-methyl-pyridine-3-carboxylic acid amide], the Emax came to 143% and the EC50 was 1460 nM.
Take `CCSc1nc(N2CCOCC2)cc(C)c1C(=O)NCc1ccccc1-c1ccccc1` [Example 50, 2-Ethylsulfanyl-4-methyl-6-morpholin-4-yl-N-[(2-phenyl-phenyl)-methyl]-pyridine-3-carboxylic acid amide]: the Emax is -97% and the EC50 was 63 nM.
With `CCSc1nc(N2CCOCC2)cc(C)c1C(=O)NCc1ccccc1C(F)(F)F` [Example 51, 2-Ethylsulfanyl-4-methyl-6-morpholin-4-yl-N-[[2-(trifluoromethyl)-phenyl]methyl]-pyridine-3-carboxylic acid amide], the Emax was -84% and the EC50 was 541 nM.
`CCSc1nc(N(C)Cc2ccc(F)cc2)cc(C)c1C(=O)NCc1cccc(F)c1` [Example 52, 2-Ethylsulfanyl-N-[(3-fluorophenyl)-methyl]-6-[(4-fluorophenyl)-methyl-methyl-amino]-4-methyl-pyridine-3-carboxylic acid amide]: the Emax was 122% and the EC50 is 235 nM.
For `CCSc1nc(N2CCOCC2)cc(C)c1C(=O)NCCCc1ccccc1` [Example 53, 2-Ethylsulfanyl-4-methyl-6-morpholin-4-yl-N-(3-phenyl-propyl)-pyridine-3-carboxylic acid amide] the same measures were 191% and 248 nM.
The corresponding values for `CCSc1nc(N2CCOCC2)cc(C)c1C(=O)NCCc1ccccc1` [Example 54, 2-Ethylsulfanyl-4-methyl-6-morpholin-4-yl-N-phenethyl-pyridine-3-carboxylic acid amide] are 103% and 2120 nM.
The corresponding values for `CCSc1nc(N2CCOCC2)cc(C)c1C(=O)NCc1ccccc1` [Example 55, N-Benzyl-2-ethylsulfanyl-4-methyl-6-morpholin-4-yl-pyridine-3-carboxylic acid amide] are 162% and 260 nM.
For the compound `CCCSc1nc(N2CCOCC2)cc(C)c1C(=O)NCc1cccc(F)c1` [Example 56, N-[(3-Fluorophenyl)-methyl]-4-methyl-6-morpholin-4-yl-2-(propylsulfanyl)-pyridine-3-carboxylic acid amide], the Emax came out at 167% and the EC50 stood at 77 nM.
For `CCCCSc1nc(N2CCOCC2)cc(C)c1C(=O)NCc1cccc(F)c1` [Example 57, 2-(Butylsulfanyl)-N-[(3-fluorophenyl)-methyl]-4-methyl-6-morpholin-4-yl-pyridine-3-carboxylic acid amide], the Emax stood at 169% and the EC50 came to 47 nM.
Take `CCSc1nc(N2CCOCC2)c(F)c(C)c1C(=O)NCc1cccc(F)c1` [Example 58, 2-Ethylsulfanyl-5-fluoro-N-[(3-fluorophenyl)-methyl]-4-methyl-6-morpholin-4-yl-pyridine-3-carboxylic acid amide]: the Emax is 173% and the EC50 is 2290 nM.
For the compound `CCSc1nc(N2CCOCC2)cc(C)c1C(=O)NCc1cccc(C(F)(F)F)c1` [Example 59, 2-Ethylsulfanyl-4-methyl-6-morpholin-4-yl-N-[[3-(trifluoromethyl)phenyl]methyl]-pyridine-3-carboxylic acid amide], the Emax amounted to 128% and the EC50 was found to be 70 nM.
As for `CCSc1nc(N2CCOCC2)cc(C)c1C(=O)NCc1ccc(C(F)(F)F)cc1` [Example 60, 2-Ethylsulfanyl-4-methyl-6-morpholin-4-yl-N-[[4-(trifluoromethyl)-phenyl]methyl]-pyridine-3-carboxylic acid amide], the Emax was 128% and the EC50 turned out to be 126 nM.
Take `CCSc1nc(N(C)CC2CCOCC2)cc(C)c1C(=O)NCc1cccc(F)c1` [Example 61, 2-Ethylsulfanyl-N-[(3-fluorophenyl)-methyl]-4-methyl-6-[methyl-(tetrahydro-pyran-4-yl-methyl)-amino]-pyridine-3-carboxylic acid amide]: the Emax was found to be 110% and the EC50 came out at 528 nM.
The corresponding values for `Cc1cc(N2CCOCC2)nc(SCC(C)C)c1C(=O)NCc1cccc(F)c1` [Example 62, N-[(3-Fluorophenyl)-methyl]-4-methyl-2-(2-methyl-propylsulfanyl)-6-morpholin-4-yl-pyridine-3-carboxylic acid amide] are 164% and 47 nM.
On to `COCCSc1nc(N2CCOCC2)cc(C)c1C(=O)NCc1cccc(F)c1` [Example 63, N-[(3-Fluorophenyl)-methyl]-2-(2-methoxy-ethylsulfanyl)-4-methyl-6-morpholin-4-yl-pyridine-3-carboxylic acid amide], for which the Emax amounted to 157% and the EC50 worked out at 585 nM.
Regarding `CCOc1nc(N2CCOCC2)cc(C)c1C(=O)NCc1ccc(F)cc1` [Example 64, 2-Ethoxy-N-[(4-fluorophenyl)-methyl]-4-methyl-6-morpholin-4-yl-pyridine-3-carboxylic acid amide], the Emax is 137% and the EC50 stood at 216 nM.
The corresponding values for `Cc1cc(N2CCOCC2)nc(N(C)C)c1C(=O)NCc1cccc(F)c1` [Example 65, 2-Dimethylamino-N-[(3-fluorophenyl)-methyl]-4-methyl-6-morpholin-4-yl-pyridine-3-carboxylic acid amide] are 238% and 1060 nM.

Values taken from patent US9168259B2 (GRÜNENTHAL GMBH, priority 2010, dated 2015).
